Data reported in patent US12590091B2, “1H-pyrrolo[3,2-C]pyridine and 1H-pyrrolo[2,3-C]pyridine derivatives as TLR9 inhibitors for the treatment of fibrosis” (BRISTOL-MYERS SQUIBB COMPANY, priority 2020, dated 2026).

Biological target: T1, human TLR9 (Homo sapiens, UniProt Q9NR96)
T1 construct: host or cells: HEK-Blue cells
T1 sequence (Q9NR96 26-1032): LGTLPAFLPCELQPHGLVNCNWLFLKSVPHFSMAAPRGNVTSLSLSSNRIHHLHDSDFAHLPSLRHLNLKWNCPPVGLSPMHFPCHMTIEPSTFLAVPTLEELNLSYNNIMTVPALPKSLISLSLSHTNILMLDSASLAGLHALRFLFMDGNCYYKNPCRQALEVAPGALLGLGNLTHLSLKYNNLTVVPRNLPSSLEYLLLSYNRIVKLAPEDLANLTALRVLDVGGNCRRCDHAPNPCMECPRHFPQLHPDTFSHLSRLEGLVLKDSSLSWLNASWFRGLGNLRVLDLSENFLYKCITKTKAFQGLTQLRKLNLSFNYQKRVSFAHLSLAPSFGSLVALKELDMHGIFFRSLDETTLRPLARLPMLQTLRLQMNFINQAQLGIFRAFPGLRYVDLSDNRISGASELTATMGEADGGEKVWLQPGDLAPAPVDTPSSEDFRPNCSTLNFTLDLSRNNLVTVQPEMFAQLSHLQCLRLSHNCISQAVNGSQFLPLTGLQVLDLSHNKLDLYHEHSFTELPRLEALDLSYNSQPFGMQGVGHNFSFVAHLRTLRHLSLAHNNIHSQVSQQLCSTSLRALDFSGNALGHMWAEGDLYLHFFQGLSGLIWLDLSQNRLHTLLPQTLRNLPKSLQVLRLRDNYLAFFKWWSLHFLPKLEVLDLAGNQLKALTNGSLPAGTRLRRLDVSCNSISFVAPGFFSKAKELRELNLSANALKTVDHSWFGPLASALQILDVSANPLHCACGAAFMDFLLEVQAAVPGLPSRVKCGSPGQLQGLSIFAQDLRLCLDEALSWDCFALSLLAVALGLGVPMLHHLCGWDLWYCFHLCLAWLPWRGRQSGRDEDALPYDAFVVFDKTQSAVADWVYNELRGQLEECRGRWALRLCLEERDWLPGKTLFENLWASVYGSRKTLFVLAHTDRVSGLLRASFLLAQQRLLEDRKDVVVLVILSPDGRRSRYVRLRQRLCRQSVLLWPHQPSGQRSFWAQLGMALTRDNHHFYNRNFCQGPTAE
Assay: TLR9 inhibition reporter assay (HEK-Blue cells, SEAP reporter)
Type: cell-based
Settings: HEK-Blue cells overexpressing human TLR9, stimulated with ODN2006 5 nM, 22 hour incubation
Summary of the method: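 HEK-Blue cells overexpressing human TLR9 (25,000 cells/well), NF-κB/AP-1-driven SEAP reporter. Compounds at 0.05 nM–50 μM final, 22 h at 37 °C, 5% CO2 with agonist. SEAP detected with HEK-Blue Detection medium; % inhibition versus agonist plus DMSO and known-inhibitor wells.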

| IC50 [nM] | Structure (SMILES) |
| --- | --- |
| 52 | Cc1nc(-c2ccc([C@@]3(O)CCN(C(C)C)C(C)(C)C3)c(F)c2)cc2c1cc(-c1ccc(S(C)(=O)=O)cc1)n2C [Example 105, (R)-4-(4-(1,4-dimethyl-2-(4-(methylsulfonyl)phenyl)-1H-pyrrolo[3,2-c]pyridin-6-yl)-2-fluorophenyl)-1-isopropyl-2,2-dimethylpiperidin-4-ol] |
| 47 | Cc1nc(-c2ccc([C@]3(O)CCN(C(C)C)C(C)(C)C3)c(F)c2)cc2c1cc(-c1ccc(S(C)(=O)=O)cc1)n2C [Example 106, (S)-4-(4-(1,4-dimethyl-2-(4-(methylsulfonyl)phenyl)-1H-pyrrolo[3,2-c]pyridin-6-yl)-2-fluorophenyl)-1-isopropyl-2,2-dimethylpiperidin-4-ol] |
| 18 | Cc1nc(-c2ccc(C3(O)CCN(C(C)C)CC3)c(F)c2)cc2c1cc(-c1ccc(S(C)(=O)=O)cc1)n2C [Example 107, 4-(4-(1,4-dimethyl-2-(4-(methylsulfonyl)phenyl)-1H-pyrrolo[3,2-c]pyridin-6-yl)-2-fluorophenyl)-1-isopropylpiperidin-4-ol] |
| 204 | Cc1nc(-c2ccc(C3(O)CCN(C(C)(C)C)CC3)cc2F)cc2c1cc(-c1ccc(S(C)(=O)=O)cc1)n2C [Example 108, 1-(tert-butyl)-4-(4-(1,4-dimethyl-2-(4-(methylsulfonyl)phenyl)-1H-pyrrolo[3,2-c]pyridin-6-yl)-3-fluorophenyl)piperidin-4-ol] |
| 188 | Cc1nc(-c2ccc(C3(O)CCN(C(C)C)CC3)cc2F)cc2c1cc(-c1ccc(S(C)(=O)=O)cc1)n2C [Example 109, 4-(4-(1,4-dimethyl-2-(4-(methylsulfonyl)phenyl)-1H-pyrrolo[3,2-c]pyridin-6-yl)-3-fluorophenyl)-1-isopropylpiperidin-4-ol] |
| 47 | Cc1nc(C2CCN(C3CC4CCC(C3)N4CC(C)C)CC2)cc2c1cc(-c1ccc(S(C)(=O)=O)cc1)n2C (centres unmarked) [Example 114, 6-(1-(8-isobutyl-8-azabicyclo[3.2.1]octan-3-yl)piperidin-4-yl)-1,4-dimethyl-2-(4-(methylsulfonyl)phenyl)-1H-pyrrolo[3,2-c]pyridine] |
| 615 | Cc1nc(-c2ccc(CN3CCN(CCC(C)(C)O)CC3)cc2)cc2c1c(F)c(-c1ccc(S(C)(=O)=O)cc1)n2C [Example 115, 4-(4-(4-(3-fluoro-1,4-dimethyl-2-(4-(methylsulfonyl)phenyl)-1H-pyrrolo[3,2-c]pyridin-6-yl)benzyl)piperazin-1-yl)-2-methylbutan-2-ol] |
| 59 | Cc1nc(-c2ccc(CN3CCN(CCC(C)(C)O)CC3)cc2)cc2c1cc(-c1ccc(S(C)(=O)=O)cc1)n2C1CC1 [Example 116, 4-[4-[[4-[1-cyclopropyl-4-methyl-2-(4-methylsulfonylphenyl)pyrrolo[3,2-c]pyridin-6-yl]phenyl]methyl]piperazin-1-yl]-2-methyl-butan-2-ol] |
| 57 | CC(C)N1CCN(c2ccc(-c3cc4c(cc(-c5ccc(S(C)(=O)=O)cc5)n4C)c(C(C)(C)O)n3)cc2)CC1 [Example 118, 2-[6-[4-(4-isopropylpiperazin-1-yl)phenyl]-1-methyl-2-(4-methylsulfonylphenyl)pyrrolo[3,2-c]pyridin-4-yl]propan-2-ol] |
| 129 | CC(C)(O)CN1C2CCC1CN(Cc1ccc(-c3cc4c(cn3)cc(-c3ccc(S(C)(=O)=O)cc3)n4C3CC3)cc1)C2 [Example 121, 1-[3-[[4-[1-cyclopropyl-2-(4-methylsulfonylphenyl)pyrrolo[3,2-c]pyridin-6-yl]phenyl]methyl]-3,8-diazabicyclo[3.2.1]octan-8-yl]-2-methyl-propan-2-ol] |
| 103 | Cc1nc(-c2ccc(CN3CCN(CC(C)(C)O)CC3)cc2)cc2c1c(F)c(-c1ccc(S(C)(=O)=O)cc1)n2C [Example 122, 1-(4-(4-(3-fluoro-1,4-dimethyl-2-(4-(methylsulfonyl)phenyl)-1H-pyrrolo[3,2-c]pyridin-6-yl)benzyl)piperazin-1-yl)-2-methylpropan-2-ol] |
